Experimental data: patent US11571420B2 (priority 2018, dated 2023)

Biological target: hADORA1/CHO (hA1 expressing) cells (Homo sapiens (Human), UniProt P30542)
Assay: FLIPR calcium inhibition assay in hADORA1/CHO (hA1 expressing) cells, 10 M adenosine
Type: cell-based
Details: read-out: cAMP & FLIPR IC50 (nM) hA1
Method: hADORA1/CHO (hA1 expressing) cells (Genscript) were plated at 1×10^4 cells/well into 384-well polystyrene plates one day before starting the experiment. On the day of experiment, the supernatant was discard and replaced with 40 μL of dye (FLIPR calcium 5 Assay Kit) per well and the plates were incubated for 60 mins at 37° C. plus 5% CO2. Then testing compounds were added at different concentrations for FLIPR™ inhibition assay. After a 400 s incubation with compound, […] adenosine was added into the cells, and the signal was captured by FLIPR.

Sequence of hADORA1/CHO (hA1 expressing) cells (P30542 whole entry): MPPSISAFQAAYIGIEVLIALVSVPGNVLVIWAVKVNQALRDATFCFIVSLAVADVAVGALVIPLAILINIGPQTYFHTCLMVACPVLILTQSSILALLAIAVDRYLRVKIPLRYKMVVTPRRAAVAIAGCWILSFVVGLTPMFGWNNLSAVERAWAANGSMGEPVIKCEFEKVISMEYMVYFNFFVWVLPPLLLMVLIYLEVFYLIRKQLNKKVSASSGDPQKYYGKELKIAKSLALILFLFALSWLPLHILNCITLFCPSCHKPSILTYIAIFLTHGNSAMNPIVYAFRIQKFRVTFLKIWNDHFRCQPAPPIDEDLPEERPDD

**Q.** For Cc1cnc2ccc(-c3nc(C(=O)NCC4CCCCN4C)c(N)nc3-c3ncco3)cn12 (single isomer, unassigned; isomer 2) [Example 125, 3-amino-6-(3-methylimidazo[1,2-a]pyridin-6-yl)-N-((1-methylpiperidin-2-yl)methyl)-5-(oxazol-2-yl)pyrazine-2-carboxamide (isomer 2)], which IC50 is on record?
**A.** 10000 nM
